Data reported in patent US20250136578A1 (Kolm Therapeutics Inc., priority 2023, published 2025).

Assays:
VCaP cells = test: VCaP growth inhibition assay (CTG); assay type: cell-based; settings: Homo sapiens, 216 h, 30 pM R1881, 9 days
In short: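 Growth was measured by CTG luminescence after a 9-day exposure of VCaP cells to compound (final 10 fM–100 nM, fivefold steps) in the presence of 30 pM final R1881, in phenol red-free DMEM/5% CSS. IC50 values were derived by nonlinear 4-parameter regression of RLU against concentration.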

AR / CBP ternary complex = AR / CBP ternary complex (Homo sapiens, UniProt P10275+Q92793); test: Ternary complex formation assay (sandwich ELISA, AR capture, CBP antibody detection) in VCaP cell lysates; assay type: cell-based; settings: treated 1.5 hours, rabbit CBP or p300 antibody detection, average, read-out: Average Ternary Complex
In short: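 Sandwich ELISA: plates were coated with anti-AR antibody (AR441) and given lysates of VCaP cells treated 1.5 h with bifunctional compound in charcoal-stripped serum. Co-captured CBP or p300 was probed with rabbit mAbs and HRP secondary. Chemifluorescent signal (ex 570/em 585) was read at 0, 5 and 15 min.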

Chain of AR / CBP ternary complex (P10275 whole entry): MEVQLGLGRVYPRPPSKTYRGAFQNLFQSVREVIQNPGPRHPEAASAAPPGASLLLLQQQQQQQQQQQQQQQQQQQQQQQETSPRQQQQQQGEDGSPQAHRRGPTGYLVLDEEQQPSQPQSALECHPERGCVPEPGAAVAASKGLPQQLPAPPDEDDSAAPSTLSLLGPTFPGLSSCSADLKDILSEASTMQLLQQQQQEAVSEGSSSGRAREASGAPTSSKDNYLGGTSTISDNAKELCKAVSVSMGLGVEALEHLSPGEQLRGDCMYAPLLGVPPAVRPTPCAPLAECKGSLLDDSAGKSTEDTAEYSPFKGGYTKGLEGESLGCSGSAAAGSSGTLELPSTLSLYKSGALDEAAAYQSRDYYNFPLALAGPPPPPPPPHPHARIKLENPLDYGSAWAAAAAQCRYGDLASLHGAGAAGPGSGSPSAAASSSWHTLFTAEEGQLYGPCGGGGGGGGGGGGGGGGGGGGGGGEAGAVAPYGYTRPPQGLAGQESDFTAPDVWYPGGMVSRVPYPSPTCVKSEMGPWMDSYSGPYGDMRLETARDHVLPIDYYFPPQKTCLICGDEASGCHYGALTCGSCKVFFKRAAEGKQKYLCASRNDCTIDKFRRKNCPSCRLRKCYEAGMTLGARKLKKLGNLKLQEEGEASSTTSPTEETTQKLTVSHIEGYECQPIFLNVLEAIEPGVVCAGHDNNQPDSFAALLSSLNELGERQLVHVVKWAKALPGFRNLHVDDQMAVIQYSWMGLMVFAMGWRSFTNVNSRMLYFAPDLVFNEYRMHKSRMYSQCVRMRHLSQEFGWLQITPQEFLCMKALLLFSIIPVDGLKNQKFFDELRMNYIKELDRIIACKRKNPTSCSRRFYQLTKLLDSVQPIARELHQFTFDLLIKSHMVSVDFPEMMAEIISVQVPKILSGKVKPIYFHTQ
Chain of AR / CBP ternary complex (Q92793 2-2442): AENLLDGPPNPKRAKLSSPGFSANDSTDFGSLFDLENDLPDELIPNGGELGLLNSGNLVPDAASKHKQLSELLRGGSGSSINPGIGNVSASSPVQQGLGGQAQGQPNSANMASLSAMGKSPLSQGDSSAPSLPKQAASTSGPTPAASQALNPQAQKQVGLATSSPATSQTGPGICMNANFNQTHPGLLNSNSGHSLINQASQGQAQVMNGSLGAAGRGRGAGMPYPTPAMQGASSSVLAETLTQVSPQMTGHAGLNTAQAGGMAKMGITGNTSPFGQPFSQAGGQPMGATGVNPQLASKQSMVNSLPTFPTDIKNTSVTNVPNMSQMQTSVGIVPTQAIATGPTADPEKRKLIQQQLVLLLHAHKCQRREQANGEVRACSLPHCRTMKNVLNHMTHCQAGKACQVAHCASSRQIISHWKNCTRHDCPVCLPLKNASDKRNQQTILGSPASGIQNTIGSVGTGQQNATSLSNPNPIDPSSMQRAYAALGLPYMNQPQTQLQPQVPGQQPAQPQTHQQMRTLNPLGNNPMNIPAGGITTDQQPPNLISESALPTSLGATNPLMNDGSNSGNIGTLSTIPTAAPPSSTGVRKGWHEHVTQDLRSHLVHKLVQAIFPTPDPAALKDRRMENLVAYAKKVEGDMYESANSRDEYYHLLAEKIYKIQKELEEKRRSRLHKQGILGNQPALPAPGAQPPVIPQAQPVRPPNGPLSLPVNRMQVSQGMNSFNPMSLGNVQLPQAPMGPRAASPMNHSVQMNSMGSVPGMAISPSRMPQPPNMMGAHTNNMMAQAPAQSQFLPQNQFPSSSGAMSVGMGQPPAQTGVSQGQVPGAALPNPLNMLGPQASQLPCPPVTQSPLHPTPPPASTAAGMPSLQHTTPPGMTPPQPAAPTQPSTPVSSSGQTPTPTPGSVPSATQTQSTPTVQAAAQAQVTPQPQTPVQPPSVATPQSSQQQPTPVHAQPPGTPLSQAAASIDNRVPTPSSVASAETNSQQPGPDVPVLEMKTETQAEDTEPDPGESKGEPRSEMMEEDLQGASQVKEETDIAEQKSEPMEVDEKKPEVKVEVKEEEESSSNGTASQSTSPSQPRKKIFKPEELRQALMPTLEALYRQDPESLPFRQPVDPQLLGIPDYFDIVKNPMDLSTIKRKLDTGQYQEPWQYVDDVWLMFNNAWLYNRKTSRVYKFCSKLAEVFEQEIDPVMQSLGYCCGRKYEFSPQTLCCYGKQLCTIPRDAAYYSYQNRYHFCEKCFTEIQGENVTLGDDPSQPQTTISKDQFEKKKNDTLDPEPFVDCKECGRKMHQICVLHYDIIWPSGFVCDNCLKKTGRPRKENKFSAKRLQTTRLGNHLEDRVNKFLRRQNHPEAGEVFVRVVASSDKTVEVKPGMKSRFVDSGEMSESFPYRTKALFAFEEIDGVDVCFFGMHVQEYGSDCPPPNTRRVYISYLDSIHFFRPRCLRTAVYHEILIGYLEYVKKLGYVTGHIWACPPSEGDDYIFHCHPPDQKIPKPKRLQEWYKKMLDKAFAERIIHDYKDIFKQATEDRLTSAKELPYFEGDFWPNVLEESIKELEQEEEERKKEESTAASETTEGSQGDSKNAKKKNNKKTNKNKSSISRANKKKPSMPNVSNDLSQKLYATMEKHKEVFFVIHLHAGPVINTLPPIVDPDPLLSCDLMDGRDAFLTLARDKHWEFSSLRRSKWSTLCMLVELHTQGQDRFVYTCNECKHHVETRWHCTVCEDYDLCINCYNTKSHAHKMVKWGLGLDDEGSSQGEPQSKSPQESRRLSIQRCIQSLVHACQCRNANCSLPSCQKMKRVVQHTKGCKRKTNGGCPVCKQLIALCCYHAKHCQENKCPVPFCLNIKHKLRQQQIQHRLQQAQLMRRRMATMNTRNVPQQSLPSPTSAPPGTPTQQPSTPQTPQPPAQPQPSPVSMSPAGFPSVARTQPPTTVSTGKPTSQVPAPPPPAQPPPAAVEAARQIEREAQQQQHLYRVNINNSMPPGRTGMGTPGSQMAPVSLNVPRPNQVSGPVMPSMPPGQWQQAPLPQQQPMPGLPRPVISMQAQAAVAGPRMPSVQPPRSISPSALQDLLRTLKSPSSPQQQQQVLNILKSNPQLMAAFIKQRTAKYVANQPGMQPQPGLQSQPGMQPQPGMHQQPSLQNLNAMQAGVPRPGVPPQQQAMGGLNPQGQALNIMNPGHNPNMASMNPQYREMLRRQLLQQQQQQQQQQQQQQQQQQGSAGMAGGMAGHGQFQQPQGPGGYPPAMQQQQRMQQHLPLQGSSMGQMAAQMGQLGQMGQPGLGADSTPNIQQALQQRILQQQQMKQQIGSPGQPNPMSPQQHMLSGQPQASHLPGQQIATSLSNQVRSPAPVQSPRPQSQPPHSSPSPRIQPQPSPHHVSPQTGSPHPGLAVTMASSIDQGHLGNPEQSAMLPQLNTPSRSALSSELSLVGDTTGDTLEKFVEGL

SMILES | IC50 (VCaP cells) | EC50 (AR / CBP ternary complex)
CC(=O)N1CCc2c(c(-c3cccc4cc(-c5cnn(C6CCN(C7CCN(c8ccc(C(=O)N[C@H]9CC[C@H](Oc%10ccc(C#N)c(Cl)c%10)CC9)nn8)CC7)CC6)c5)ncc34)nn2C2CCOCC2)C1 [Compound 183] | 0.1 to 1 nM | < 1 nM
CC(=O)N1CCc2c(c(-c3cccc4cc(-c5ccc(CCC6CCN(c7ccc(C(=O)N[C@H]8CC[C@H](Oc9ccc(C#N)c(Cl)c9)CC8)cn7)CC6)nc5)ncc34)nn2C2CCOCC2)C1 [Compound 165] | 0.1 to 1 nM | < 1 nM
CC(=O)N1CCc2c(c(-c3cccc4cc(C5CC5)ncc34)nn2C2CCN(CC3CCN(c4ccc(C(=O)N[C@H]5CC[C@H](Oc6ccc(C#N)c(Cl)c6)CC5)nn4)CC3)CC2)C1 [Compound 123, 6-[4-[[4-[5-acetyl-3-(3-cyclopropyl-8-isoquinolyl)-6,7-dihydro-4H-pyrazolo[4,3-c]pyridin-1-yl]-1-piperidyl]methyl]-1-piperidyl]-N-[4-(3-chloro-4-cyano-phenoxy)cyclohexyl]pyridazine-3-carboxamide] | 0.1 to 1 nM | < 1 nM
CC(=O)N1CCc2c(c(N3CCCc4cc(C#N)ncc43)nn2C2CCN(C(=O)C3CCN(c4ccc(C(=O)N[C@H]5CC[C@H](Oc6ccc(C#N)c(Cl)c6)CC5)nn4)CC3)CC2)C1 [Compound 69, 6-[4-[4-[5-acetyl-3-(6-cyano-3,4-dihydro-2H-1,7-naphthyridin-1-yl)-6,7-dihydro-4H-pyrazolo[4,3-c]pyridin-1-yl]piperidine-1-carbonyl]-1-piperidyl]-N-[4-(3-chloro-4-cyano-phenoxy)cyclohexyl]pyridazine-3-carboxamide] | ≤ 0.1 nM | < 1 nM
CC(=O)N1CCc2c(c(N3CCCc4cc(-c5cnn(C)c5)c(C(F)F)cc43)nn2C2CCN([C@H]3CCN(c4ccc(C(=O)N[C@H]5CC[C@H](Oc6ccc(C#N)c(Cl)c6)CC5)nn4)C3)CC2)C1 [Compound 221, 6-[(3S)-3-[4-[5-acetyl-3-[7-(difluoromethyl)-6-(1-methylpyrazol-4-yl)-3,4-dihydro-2H-quinolin-1-yl]-6,7-dihydro-4H-pyrazolo[4,3-c]pyridin-1-yl]-1-piperidyl]pyrrolidin-1-yl]-N-[4-(3-chloro-4-cyano-phenoxy)cyclohexyl]pyridazine-3-carboxamide] | 1 to 100 nM | > 100 nM
CC(=O)N1CCc2c(c(N3CCCc4cc(-c5cnn(C)c5)c(C(F)F)cc43)nn2[C@@H]2CCN(CC3CCN(c4ccc(C(=O)N[C@H]5CC[C@H](Oc6ccc(C#N)c(Cl)c6)CC5)nn4)CC3)C[C@@H]2F)C1 [Compound 144, 6-[4-[[(3S,4R)-4-[5-acetyl-3-[7-(difluoromethyl)-6-(1-methylpyrazol-4-yl)-3,4-dihydro-2H-quinolin-1-yl]-6,7-dihydro-4H-pyrazolo[4,3-c]pyridin-1-yl]-3-fluoro-1-piperidyl]methyl]-1-piperidyl]-N-[4-(3-chloro-4-cyano-phenoxy)cyclohexyl] pyridazine-3-carboxamide] | ≤ 0.1 nM | < 1 nM
CC(=O)N1CCc2c(c(-c3cccc4cc(-c5cnn(CCC6CCN(c7ccc(C(=O)N[C@H]8CC[C@H](Oc9ccc(C#N)c(Cl)c9)CC8)nn7)CC6)c5)ncc34)nn2C2COC2)C1 [Compound 84, 6-[4-[2-[4-[8-[5-acetyl-1-(oxetan-3-yl)-6,7-dihydro-4H-pyrazolo[4,3-c]pyridin-3-yl]-3-isoquinolyl]pyrazol-1-yl]ethyl]-1-piperidyl]-N-[4-(3-chloro-4-cyano-phenoxy)cyclohexyl]pyridazine-3-carboxamide] | 0.1 to 1 nM | < 1 nM
CC(=O)N1CCc2c(c(N3CCCc4cc(-c5cnn(C)c5)c(C(F)F)cc43)nn2C2CCN(CC3(C)CCN(c4ccc(C(=O)N[C@H]5CC[C@H](Oc6ccc(C#N)c(Cl)c6)CC5)nn4)CC3)CC2)C1 [Compound 100, 6-[4-[[4-[5-acetyl-3-[7-(difluoromethyl)-6-(1-methylpyrazol-4-yl)-3,4-dihydro-2H-quinolin-1-yl]-6,7-dihydro-4H-pyrazolo[4,3-c]pyridin-1-yl]-1-piperidyl]methyl]-4-methyl-1-piperidyl]-N-[4-(3-chloro-4-cyano-phenoxy)cyclohexyl]pyridazine-3-carboxamide] | 0.1 to 1 nM | < 1 nM
CC(=O)N1CCc2c(c(-c3cccc4cc(-c5cnn(C)c5)ncc34)nn2C2CCN(C(=O)C3CCN(c4ccc(C(=O)N[C@H]5CC[C@H](Oc6ccc(C#N)c(Cl)c6)CC5)cc4)CC3)CC2)C1 [Compound 164, 4-[4-[4-[5-acetyl-3-[3-(1-methylpyrazol-4-yl)-8-isoquinolyl]-6,7-dihydro-4H-pyrazolo[4,3-c]pyridin-1-yl]piperidine-1-carbonyl]-1-piperidyl]-N-[4-(3-chloro-4-cyano-phenoxy)cyclohexyl]benzamide] | 0.1 to 1 nM | < 1 nM
CC(=O)N1CCc2c(c(-c3cccc4cc(-c5ccc(CCC6CC7(C6)CN(c6ccc(C(=O)N[C@H]8CC[C@H](Oc9ccc(C#N)c(Cl)c9)CC8)nn6)C7)nc5)ncc34)nn2C)C1 [Compound 51, 6-[6-[2-[5-[8-(5-acetyl-1-methyl-6,7-dihydro-4H-pyrazolo[4,3-c]pyridin-3-yl)-3-isoquinolyl]-2-pyridyl]ethyl]-2-azaspiro[3.3]heptan-2-yl]-N-[4-(3-chloro-4-cyano-phenoxy)cyclohexyl]pyridazine-3-carboxamide] | 0.1 to 1 nM | < 1 nM
CC(=O)N1CCc2c(c(-c3cccc4nc(-c5cnn(CCC6CCN(c7ccc(C(=O)N[C@H]8CC[C@H](Oc9ccc(C#N)c(Cl)c9)CC8)nn7)CC6)c5)ncc34)nn2C2CCOCC2)C1 [Compound 70] | 0.1 to 1 nM | < 1 nM
CC(=O)N1CCc2c(c(-c3cccc4cc(-c5cnn(CCC6CCN(c7ccc(C(=O)N[C@H]8CC[C@H](Oc9ccc(C#N)c(Cl)c9)CC8)nn7)CC6)c5)ncc34)nn2C)C1 [Compound 8, 6-[4-[2-[4-[8-(5-acetyl-1-methyl-6,7-dihydro-4H-pyrazolo[4,3-c]pyridin-3-yl)-3-isoquinolyl]pyrazol-1-yl]ethyl]-1-piperidyl]-N-[4-(3-chloro-4-cyano-phenoxy)cyclohexyl]pyridazine-3-carboxamide] | ≤ 0.1 nM | < 1 nM

Second part, the molecule after the results:

IC50 (VCaP cells) | EC50 (AR / CBP ternary complex) | SMILES
≤ 0.1 nM | < 1 nM | CC(=O)N1CCc2c(c(N3CCCc4cc(-c5cnn(C)c5)c(C(F)F)cc43)nn2[C@H]2CC[C@@H](N3CCC4(CC3)CN(c3ccc(C(=O)N[C@H]5CC[C@H](Oc6ccc(C#N)c(Cl)c6)CC5)nn3)C4)CC2)C1 [Compound 192, 6-[7-[4-[5-acetyl-3-[7-(difluoromethyl)-6-(1-methylpyrazol-4-yl)-3,4-dihydro-2H-quinolin-1-yl]-6,7-dihydro-4H-pyrazolo[4,3-c]pyridin-1-yl]cyclohexyl]-2,7-diazaspiro[3.5]nonan-2-yl]-N-[4-(3-chloro-4-cyano-phenoxy)cyclohexyl]pyridazine-3-carboxamide]
≤ 0.1 nM | < 1 nM | CC(=O)N1CCc2c(c(-c3cccc4nc(-c5ccc(CCC6CCN(c7ccc(C(=O)N[C@H]8CC[C@H](Oc9ccc(C#N)c(Cl)c9)CC8)nn7)CC6)nc5)ncc34)nn2C2CCOCC2)C1 [Compound 73, 6-[4-[2-[5-[5-(5-acetyl-1-tetrahydropyran-4-yl-6,7-dihydro-4H-pyrazolo[4,3-c]pyridin-3-yl)quinazolin-2-yl]-2-pyridyl]ethyl]-1-piperidyl]-N-[4-(3-chloro-4-cyano-phenoxy)cyclohexyl]pyridazine-3-carboxamide]
≤ 0.1 nM | < 1 nM | CC(=O)N1CCc2c(c(N3CCCc4cc(-c5cnn(C)c5)c(C(F)F)cc43)nn2C2CCN([C@@H]3CCN(c4ccc(C(=O)N[C@H]5CC[C@H](Oc6ccc(C#N)c(Cl)c6)CC5)nn4)C[C@@H]3C)CC2)C1 [Compound 200]
≤ 0.1 nM | < 1 nM | CC(=O)N1CCc2c(c(N3CCCc4cc(-c5cnn(C)c5)c(C(F)F)cc43)nn2C2CCN(CC3C(C)CN(c4ccc(C(=O)N[C@H]5CC[C@H](Oc6ccc(C#N)c(Cl)c6)CC5)nn4)CC3C)CC2)C1 (stereo partly drawn) [Compound 217, 6-[4-[[4-[5-acetyl-3-[7-(difluoromethyl)-6-(1-methylpyrazol-4-yl)-3,4-dihydro-2H-quinolin-1-yl]-6,7-dihydro-4H-pyrazolo[4,3-c]pyridin-1-yl]-1-piperidyl]methyl]-3,5-dimethyl-1-piperidyl]-N-[4-(3-chloro-4-cyano-phenoxy)cyclohexyl]pyridazine-3-carboxamide]
≤ 0.1 nM | < 1 nM | CC(=O)N1CCc2c(c(-c3cccc4cc(-c5cnn(CCOC6CCN(c7ccc(C(=O)N[C@H]8CC[C@H](Oc9ccc(C#N)c(Cl)c9)CC8)nn7)CC6)c5)ncc34)nn2C)C1 [Compound 65, 6-[4-[2-[4-[8-(5-acetyl-1-methyl-6,7-dihydro-4H-pyrazolo[4,3-c]pyridin-3-yl)-3-isoquinolyl]pyrazol-1-yl]ethoxy]-1-piperidyl]-N-[4-(3-chloro-4-cyano-phenoxy)cyclohexyl]pyridazine-3-carboxamide]
≤ 0.1 nM | < 1 nM | CC(=O)N1CCc2c(c(N3CCCc4cc(-c5cnn(C)c5)c(C(F)F)cc43)nn2C2CCN(C[C@H]3CCN(c4ccc(C(=O)N[C@H]5CC[C@H](Oc6ccc(C#N)c(Cl)c6)CC5)nn4)C[C@@H]3C)CC2)C1 [Compound 104, 6-[4-[[4-[5-acetyl-3-[7-(difluoromethyl)-6-(1-methylpyrazol-4-yl)-3,4-dihydro-2H-quinolin-1-yl]-6,7-dihydro-4H-pyrazolo[4,3-c]pyridin-1-yl]-1-piperidyl]methyl]-3-methyl-1-piperidyl]-N-[4-(3-chloro-4-cyano-phenoxy)cyclohexyl]pyridazine-3-carboxamide]
